Experimental data reported in ChEMBL document CHEMBL1123015, “Thiol-containing androgens as suicide substrates of aromatase” (J Med Chem, 1985).

Target: T1, Aromatase (Homo sapiens, UniProt P11511)
T1 sequence (P11511 whole entry): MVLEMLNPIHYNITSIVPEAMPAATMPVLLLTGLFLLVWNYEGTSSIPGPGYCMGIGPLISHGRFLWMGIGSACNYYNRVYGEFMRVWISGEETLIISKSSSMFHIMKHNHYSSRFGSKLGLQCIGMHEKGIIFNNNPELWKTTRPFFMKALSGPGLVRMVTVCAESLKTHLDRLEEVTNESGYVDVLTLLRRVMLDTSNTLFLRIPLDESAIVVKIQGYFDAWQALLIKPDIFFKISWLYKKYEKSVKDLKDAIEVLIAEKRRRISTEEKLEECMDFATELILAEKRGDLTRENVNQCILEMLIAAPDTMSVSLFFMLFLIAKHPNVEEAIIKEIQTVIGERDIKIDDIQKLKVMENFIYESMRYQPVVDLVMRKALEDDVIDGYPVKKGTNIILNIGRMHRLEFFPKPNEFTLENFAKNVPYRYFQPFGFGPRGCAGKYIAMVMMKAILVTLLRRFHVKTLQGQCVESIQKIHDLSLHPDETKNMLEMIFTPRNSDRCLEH
Experiment: Percentage aromatase activity remaining in human placental microsomes with NADPH
Format: functional, Placenta

C[C@]12CC[C@H]3[C@@H](CCC4=CC(=O)CC[C@@]43CS)[C@@H]1CCC2=O
Activity: 94%
